Measurements reported in patent publication US20260191933A1, “PHARMACEUTICAL COMBINATIONS AND USES THEREOF” (The University of Melbourne, priority 2022, published 2026).

Assays:
[1] = tested on: 12-week HFHS fed obese mice; assay: I.C.V. fluorosamine in obese mice: body weight, adiposity, energy expenditure, food intake; assay type: in vivo, C57BL/6J mice; conditions: I.C.V. for 10 days
Protocol: Metabolic measurements were undertaken in the Melbourne Mouse Metabolic Phenotyping Platform (The University of Melbourne, Australia). Glucose tolerance tests were performed on 6 h fasted conscious mice respectively by injecting D-glucose (2 mg/g of lean body mass and 1 mg/g lean mass for db/db and HFHS+STZ mice) into the peritoneal cavity and measuring glucose in tail blood immediately before and at 15, 30, 45, 60, 90 and 120 min after injection using an Accu-Check glucometer (Roche, Germany). The areas under glucose excursion curves were determined and expressed as mmol/l×min. Fasted (12 h fast) plasma insulin or glucose levels were determined using a Rat/Mouse Insulin ELISA (EZRMI-13K, Merck Millipore, CA) or an Accu-Check glucometer respectively. The HOMA-IR was calculated using the equation [(glucose×insulin)/405]. Adiposity was measured using TD-NMR minispec (Bruker Optics Inc., Billerica, MA).
Mice were acclimated for 24 h and then monitored for 48 h in an environmentally controlled Promethion Metabolic Screening System (Sable Systems International, NV) fitted with indirect open circuit calorimetry, food consumption and activity monitors to measure activity, caloric intake and energy expenditure. Respiratory quotients were calculated as the ratio of CO2 production over O2 consumption respiratory exchange ratio and energy expenditure was calculated using the Weir equation (Kcal h−1=60×(0.003941×VO2+0.001106×VCO2). To account for difference in body mass/composition energy expenditure was analysed and adjusted using ANCOVA using scripts available at the National Mouse Metabolic Phenotyping Centers (MMPC, Nashville, TN, USA) Energy Expenditure Analysis Page (https://www.mmpc.org/shared/regression.aspx).
(§1) Under isoflurane anaesthetic 12-week HFHS fed C57BL/6J or AgRP-Cas9 mice were implanted stereotaxically with guide cannulas into the right lateral ventricle (0.2 mm posterior, 1.0 mm lateral from bregma). Guide cannula was positioned 1.3 mm above the injection site (1 mm ventral to the surface of the skull). AgRP-Cas9 mice were treated with either AAV-gScrambled or AAV-gIR and underwent guide cannula placement 7 days post AAV administration. Mice were administered I.C.V. vehicle (ddH2O), fluorosamine (100 μg/animal/day or 250 μgl/animal/day) in a volume of 2 μl/animal and all compounds were delivered approximately 1 h before lights off (7 pm).

[2] = tested on: 12-week obese AgRP-Cas9 mice; assay: I.C.V. fluorosamine in obese AgRP-Cas9 mice given AAV-gScrambled or AAV-gIR; assay type: in vivo
Protocol: To disassemble the CSPG-ECM within the ARC, mice received bilaterally (unless stated otherwise) administration of 15 mU/side of active chABC (C3667, Sigma, St. Louis, […], dissolved in 1 M trehalose) or heat-inactivated chABC protein as a vehicle (chABC in 1 M trehalose was heat-inactivated at 85° C. for 45 mins, as described previously by Alonge et al., 2020) in a total volume of 150 nl/side. To pulse the CSPG-ECM within the ARC or RSG, mice received bilateral (unless stated otherwise) administration of biotinylated WFA (0.3 μg/side, in a volume of 150 nl). To disrupt IR in AgRP neurons, 12-week HFHS fed AgRP-Cas9 mice were stereotaxically injected with AAVs expressing U6-driven guide RNA's targeting the InsR gene or a scrambled sequence (5′ GTGTAGTTCGACCATTCGTG ′3 (SEQ ID NO: 14)) alongside a CAG driven mCherry FLEX switch. Unless otherwise stated injections were bilaterally into the ARC (coordinates, bregma: anterior-posterior, −1.70 mm; dorsal-ventral, −5.85 mm; lateral, +/−0.18 mm, 200 nl/side) or into the RSG (coordinates, bregma: anterior-posterior, −1.40 mm; dorsal-ventral, −1.80 mm; lateral, +/−0.50 mm, 200 nl/side). WFA-biotin was injected unilaterally into the cc (coordinates, bregma: anterior-posterior, −1.40 mm; dorsal-ventral, −5.80 mm; lateral, +/−0.20 mm, 200 nl/side)
To generate AAV-gScrambled (pAAV-U6>mScramble-[…] (SEQ ID NO: 14))-CAG>LL:rev(mCherry):rev(LL):WPRE) and AAV-gIR (pAAV[-U6>mInsr[gRNA-[…] (SEQ ID NO: 15)]-U6>mInsr[gRNA-[…] (SEQ ID NO: 16)]-CAG>LL:rev(mCherry):rev(LL):WPRE) viral vectors, sgRNAs were first designed using online CRISPR tools (http://crispr.mit.edu and http://chopchop.cbu.uib.no/). […] For AAV-gScrambled a pUp-U6>Scramble gRNA vector was generated using the Gibson assembly of a pDONR P4-P1R backbone and primers 5′ […] ′3 (SEQ ID NO: 17) and 5′ […] ′3 (SEQ ID NO: 18). For AAV-gIR a pUp-U6>mInsr[gRNA-[…] (SEQ ID NO: 15)]-U6>mInsr[gRNA-[…] (SEQ ID NO: 16)] gRNA vector was generated using the Gibson assembly of a AarI digested pUp-U6-gRNA-AarI-Stuffer-AarI backbone and primers 5′ […] ′3 (SEQ ID NO: 19) and 5′ […] ′3 (SEQ ID NO: 20). For both AAV-gScrambled and AAV-gIR the p-Up vectors were cloned alongside pDown-CAG and pTail-LL:rev(mCherry):rev(LL) to generate the final vectors by LR reaction using the Gateway method. AAV vectors were packaged into the AAV-DJ/8 steotype at a titre of >2 10^13 GC/ml). All vector cloning and AAV packaging was carried out by VectorBuilder (Chicago, IL).
as §1

[3] = AAV-gScrambled AgRP-Cas9 mice, 100 μg/animal I.C.V. daily for 10 days

CC(=O)NC1C(OC(C)=O)OC(COC(C)=O)[C@@H](F)C1OC(C)=O (stereo partly shown) [PZ6005, per-O-acetylated-4-F-N-acetylglucosamine]
adiposity [1]: reduced adiposity | body weight [1]: promoted weight loss | energy expenditure ([1]; independently of ambulatory activity): enhanced energy expenditure | food intake ([1]; through enhanced satiety): supressed food intake | positive metabolic outcomes ([2]; AAV-IR AgRP-Cas9 mice): mitigated, at least in part | adiposity [2, 3]: reduced adiposity | body weight [2, 3]: promoted weight loss | caloric intake [2, 3]: attenuated caloric intake | energy expenditure [2, 3]: enhanced energy expenditure | glycaemic control [2, 3]: improved glycaemic control
